Assay results as given in US6982252B2, “Inhibition of vacuolar proton ATPase activity and/or the modulation of acidic organelle function sensitizes cells to radiation, chemotherapy and biological agents” (Memorial Sloan-Kettering Cancer Center, priority 2000, dated 2006).
pKd: −log10 of the molar value. Marks after values point to notes of the source that are not given here.

How the values were obtained:
Capan-1 xenograft tumor = settings: subcutaneous, doses smaller than 1 mg/kg/day; cited from earlier work
V-ATPase [1] = biological target: T1, V-ATPase (Homo sapiens, UniProt P27449); settings: Gagliardi et al., 1999; cited from earlier work
[2] = tested on: Capan-1 human pancreatic cancer cell line; settings: Capan-1 in vitro; cited from earlier work
[3] = tested on: MCF-7 (human breast adenocarcinoma); test: Clonogenic survival (surviving fraction) of MCF-7 cells after radiation or chemotherapeutic agent; type: cell-based
[4] = cited from earlier work
[5] = subcutaneous, doses smaller than 1 mg/kg/day, cited from earlier work
[6] = tested on: DNA of irradiated MCF-7 cells; test: DNA fragmentation by pulse field gel electrophoresis (PFGE); type: cell-based, human; settings: bafilomycin A1 (4 nM) added two days following 10 Gy, for 24 hours
Procedure: FIG. 6. Bafilomycin A1 enhances DNA fragmentation in irradiated cells: Cells were irradiated 48 hours post-plating and bafilomycin A1 (4 nM) was added 48 hours following irradiation, for the duration of 24 hours, from concentrated stock solution at dimethylsulfoxide (DMSO) to a final concentration of 4 nM. Control cells received the vehicle alone. Cells were harvested 72 hours following irradiation. Plug preparation and resolution of DNA was conducted according to Gilles et al. (2000, Blood 95:2930-2936). M-DNA size standard, lambda 50 kb ladder. A-Unirradiated controls. B-Cells irradiated with 10 Gy. C-Unirradiated cells incubated with 4 nM bafilomycin A1. D-Cells irradiated with 10 Gy and incubated with 4 nM bafilomycin A1. Window of DNA resolution was 20 kb-1000 kb. Arrow 1 points to sample origin. Arrow 2 points to zone of no resolution.
DNA extraction and electrophoresis on agarose gel was carried out according to Bose et al., 1995, Cell 82:405-414. DNA preparation and resolution with pulse field gel electrophoresis (PFGE) was conducted as described in Gilles et al., 2000, Blood 95:2930-2936 utilizing the CHEF Mapper (Bio-Rad, Richmond, Calif.). DNA strand breaks were assayed by the TUNEL method and analyzed by flow cytometry (Haimovitz-Friedman, 1994, J. Exp. Med. 180:525-535).

[7] = tested on: acidic vesicular organelles (AVO) in MCF-7 cells; test: Mean red/green fluorescence ratio in acridine orange stained cells by flow cytometry; type: cell-based, human; settings: 500 nM bafilomycin A1 30 minutes prior to acridine orange
Procedure: bFGF was added to cultures of MCF-7 cells at 10 ng/ml for 48 hours. TNF was added at 2.3 nM for 48 hours. PMA was added for 1 hour at a concentration of 30 nM, followed by rinsing of the cells and incubation for an additional 48 hours.
Cell staining was performed according to standard techniques (Arvan et al., 1984, J. Bio. Chem. 259:13567-13572; Mains and May, 1988, J. Biol. Chem. 263:7887-7894; Traganos and Darzynkiewicz, Methods in Cell Biology 41:185-194, Academic Press). Acridine orange (Polysciences, Warrington, Pa.) was added to a final concentration of 1 μg/ml for 15 minutes. Bafilomycin A1 (Sigma Chemical Co., St. Louis, Mo.) was dissolved in DMSO and added to the cells 30 minutes prior to the addition of acridine orange. LysoSensor Blue DND-167 (Molecular Probes, Eugene, Oreg.) at a final concentration of 10 μM was added for 8 minutes. Pictures were obtained with a fluorescence microscope (Olympus BH-2 RFCA), equipped with a mercury-100 W lamp, 490 nm band pass blue excitation filters, 500 nm dichroic mirror and a 515 nm long pass barrier filter. Images of control and irradiated cells were recorded on Kodak Elite II 100 ASA film for color slides by 4 seconds exposure.
In acridine orange stained cells the cytoplasm and nucleolus fluoresce bright green and dim red, while acidic compartments fluoresce bright red (Mains and May, 1988, J. Biol. Chem. 263:7887-7894; Traganos and Darzynkiewicz, Methods in Cell Biology Vol. 41, pp. 185-194, Academic Press). The intensity of the red fluorescence is proportional to the degree of acidity and/or the volume of the cellular acidic compartment. Therefore, by comparing the mean red/green fluorescence ratio within different cell populations, a change in the degree of acidity and/or the fractional volume of the cellular acidic compartment could be measured. Cells were stained with acridine orange for […], removed from the plate with trypsin-EDTA and collected in phenol red-free growth medium. Green (510-530 nm) and red (>650 nm) Fluoresence emission from 10,000 cells illuminated with blue (488 nm) excitation light was measured with a FACSCalibur from Becton Dickinson (San Jose, Calif.) using CellQuest software. The red to green fluorescence ratio for individual cells was calculated using FlowJo software (TREE STAR, Inc., San Carlos, Calif.). To control for possible effect of trypsinization on the measured red to green fluorescence ratio, the ratios were compared by flow cytometry with those obtained with a Laser Scanning Microscope (LSM510 from Zeiss). Stained cells, grown on cover glass, were illuminated with a 488 nm argon laser beam. The red (>650 nm) to green (505-545 nm) fluorescence ratio of an entire image was obtained using software LSM 510 version 2.01 SP2. These measurements yielded similar results to those obtained with flow cytometry. All determinations of red to green fluorescence ratio reported in this section were obtained via flow cytometry.

V-ATPase [8] = biological target: T1, V-ATPase; settings: binding to V-ATPase; Drose and Altendorf, 1997; cited from earlier work
[9] = subcutaneous, 1.4 mol/kg/day for 14 days

T1 sequence (P27449 whole entry): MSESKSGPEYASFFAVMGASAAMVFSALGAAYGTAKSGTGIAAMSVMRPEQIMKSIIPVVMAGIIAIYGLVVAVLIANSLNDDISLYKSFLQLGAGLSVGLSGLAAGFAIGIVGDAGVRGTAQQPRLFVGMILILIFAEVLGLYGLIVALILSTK

For bafilomycin A1, the “effect on Capan-1 xenograft tumor” value (Capan-1 xenograft tumor) is listed as “apoptotic death of Capan-1 cells in their xenograft tumor and overall shrinkage of the tumors”, the “concentration range that inhibits V-H+-ATPase activity without affecting F or P-type ATPases” value (V-ATPase [1]) is listed as “nM range” and the “concentrations reported to induce apoptosis” value [2] is listed as “greater than 10 nM”. The “survival, column Adriamycin” value ([3]; Table 15, Bafilomycin 2 nM + 100 nM adriamycin, average of two plates) was “(0.56; 0.58)0.57*”, the “cell survival, Bafilomycin A1 (2 nM)” value ([3]; Table 18, Bafilomycin A1 2 nM, Etoposide 0 μg/ml) was 0.9 ± 0.09 and the “decrease of survival in the presence of etoposide” value ([3]; bafilomycin 2 nM, etoposide 0.05 μg/ml, Table 18) was 54%. For the same substance, the “toxicity when injected intravenously” value ([4]; intravenous, Keeling, 1997) was “toxic”, the bone readsorption [4, 9] was “increased bone readsorption” and the toxicity [4, 9] was “non-toxic”. The “tolerability when administered subcutaneously” value ([4]; subcutaneous) was “tolerated”, the “histological examination of organs” value ([5]; four weeks treatment) was “did not affect the liver, pancreas, small intestine, kidney or lung” and the “growth of nude mice” value ([5]; up to four weeks, Ohta et al., 1998) was “did not affect the growth”. The “DNA cleavage into large fragments (20-1000 kb)” value [6] was “dramatically increased DNA clevage into large fragments”, the “radiation-induced increase of mean red/green fluorescence ratio” value ([7]; 24 hours following 10 Gy) was “inhibited its radiation-induced increase” and the “mean red/green fluorescence ratio in unirradiated cells” value ([7]; unirradiated) was “decreased”. For the same substance, the pKd (V-ATPase [8]) was 8.00.
